Here are results for 47 compounds from ChEMBL document CHEMBL1131756, “Synthesis and biological activity of anthelmintic thiadiazoles using an AF-2 receptor binding assay” (Bioorg Med Chem Lett, 1999).

Each structure is given as a SMILES string.

For this assay, the target named is AF2 neuropeptide receptor. The assay can be described thus: In vitro antihelminthic activity using AF2 Neuropeptide receptor binding assay in Caenorhabditis elegans.
In the case of `Cc1ccccc1-c1nn(-c2c(Cl)cc(Cl)cc2Cl)c(=N)s1`, the IC50 (usually the concentration that gives 50% inhibition) is 4 µM.

For `N=c1sc(-c2ccccc2SC(F)(F)F)nn1-c1c(Cl)cc(C(F)(F)F)cc1Cl`, the IC50 amounted to 56 µM.

The compound `N=c1sc(-c2cccc(F)c2)nn1-c1c(Cl)cc(Cl)cc1Cl` yielded a 50% inhibitory concentration (IC50) of 8 µM.

As to `COC(=O)c1ccccc1-c1nn(-c2c(Cl)cc(C(F)(F)F)cc2Cl)c(=N)s1`, the 50% inhibitory concentration (IC50) is over 100 µM.

With `N=c1sc(-c2cc(F)ccc2F)nn1-c1c(Cl)cc(C(F)(F)F)cc1Cl`, the IC50 turned out to be 0.37 µM.

`N=c1sc(-c2ccccc2F)nn1-c1c(Cl)cc(C(F)(F)F)cc1Cl`: the IC50 stood at 0.15 µM.

Compound `N=c1sc(-c2cc(CN)ccn2)nn1-c1c(Cl)cc(C(F)(F)F)cc1Cl` came in with an IC50 of 47 µM.

With `N=c1sc(-c2c(F)cccc2C(F)(F)F)nn1-c1c(Cl)cc(C(F)(F)F)cc1Cl`, the IC50 was over 100 µM.

In turn, `N=c1sc(-c2cccc(Br)n2)nn1-c1c(Cl)cc(C(F)(F)F)cc1Cl` showed an IC50 of 20 µM.

`N=c1sc(-c2ccncn2)nn1-c1c(Cl)cc(C(F)(F)F)cc1Cl` yielded an IC50 of 2.6 µM.

The compound `Cc1cccnc1-c1nn(-c2c(Cl)cc(C(F)(F)F)cc2Cl)c(=N)s1` registered an IC50 of 11 µM.

As to `N=c1sc(-c2ccccn2)nn1-c1c(Cl)cc(Cl)cc1C(F)(F)F`, the IC50 was determined as 0.14 µM.

Turning to `CCOC(=O)Oc1ccc(-c2nn(-c3c(Cl)cc(Cl)cc3Cl)c(=N)s2)cc1`, the IC50 is 4 µM.

As for `N=c1sc(-c2ccc([N+](=O)[O-])cc2)nn1-c1c(Cl)cc(Cl)cc1Cl`, the IC50 was 5 µM.

On to `N=c1sc(-c2cc([N+](=O)[O-])ccc2F)nn1-c1c(Cl)cc(C(F)(F)F)cc1Cl`, for which the 50% inhibitory concentration (IC50) was 0.63 µM.

Regarding `N=c1sc(-c2ccc(Br)cc2)nn1-c1c(Cl)cc(Cl)cc1Cl`, the IC50 stood at 4 µM.

In turn, `N=c1sc(-c2cccc(C(F)(F)F)c2F)nn1-c1c(Cl)cc(Cl)cc1Cl` returned an IC50 of 4 µM.

Take `N=c1sc(-c2ccc(C(F)(F)F)cc2)nn1-c1c(Cl)cc(Cl)cc1Cl`: the IC50 was found to be 20 µM.

Turning to `N=c1sc(-c2ccc(C(F)(F)F)cc2F)nn1-c1c(Cl)cc(Cl)cc1Cl`, the IC50 amounted to 1 µM.

`N=c1sc(-c2cc(Cl)ccn2)nn1-c1c(Cl)cc(C(F)(F)F)cc1Cl`: the IC50 amounted to 0.16 µM.

Consider `N#Cc1ccc(-c2nn(-c3c(Cl)cc(Cl)cc3Cl)c(=N)s2)cc1`, for which the IC50 was found to be 6 µM.

Turning to `N=c1sc(-c2ccccc2)nn1-c1c(Cl)cc(Cl)cc1Cl`, the half-maximal inhibitory concentration (IC50) is 3 µM.

The compound `N=c1sc(-c2ccccn2)nn1-c1c(Cl)cc(Cl)cc1Cl` displayed an IC50 of 0.4 µM.

The compound `COC(=O)c1ccc(-c2nn(-c3c(Cl)cc(Cl)cc3Cl)c(=N)s2)cc1` came in with an IC50 of 11 µM.

`N=c1sc(-c2ccc(Cl)cc2)nn1-c1c(Cl)cc(Cl)cc1Cl` gave an IC50 of 5 µM.

`COC(=O)c1ccnc(-c2nn(-c3c(Cl)cc(C(F)(F)F)cc3Cl)c(=N)s2)c1` had a half-inhibitory concentration (IC50) of 0.13 µM.

`N=c1sc(-c2ccccc2F)nn1-c1c(Cl)cc(Cl)cc1Cl`: the IC50 is 0.5 µM.

As for `N=c1sc(-c2ccc(O)cc2)nn1-c1c(Cl)cc(Cl)cc1Cl`, the IC50 was determined as 4 µM.

The compound `COc1ccc(OC)c(-c2nn(-c3c(Cl)cc(C(F)(F)F)cc3Cl)c(=N)s2)c1` came in with an IC50 of 4 µM.

With `N#Cc1ccnc(-c2nn(-c3c(Cl)cc(C(F)(F)F)cc3Cl)c(=N)s2)c1`, the half-inhibitory concentration (IC50) worked out at 0.01 µM.

Turning to `CC(C)(C)c1cc(-c2nn(-c3c(Cl)cc(C(F)(F)F)cc3Cl)c(=N)s2)ccn1`, the IC50 is 0.037 µM.

In turn, `N=c1sc(-c2ccc(OC(F)(F)F)cc2)nn1-c1c(Cl)cc(Cl)cc1Cl` gave an IC50 of 5 µM.

On to `N=c1sc(-c2cncc(C(F)(F)F)c2)nn1-c1c(Cl)cc(C(F)(F)F)cc1Cl`, for which the IC50 turned out to be 0.021 µM.

For `N=c1sc(-c2ccccc2OC(F)(F)F)nn1-c1c(Cl)cc(C(F)(F)F)cc1Cl`, the half-inhibitory concentration (IC50) came to 85 µM.

The compound `N=c1sc(-c2cc(C(F)(F)F)ccc2F)nn1-c1c(Cl)cc(Cl)cc1Cl` displayed an IC50 of 0.1 µM.

As to `Cc1ccc(-c2nn(-c3c(Cl)cc(Cl)cc3Cl)c(=N)s2)cc1`, the IC50 is 7 µM.

As for `N=c1sc(-c2cnccn2)nn1-c1c(Cl)cc(C(F)(F)F)cc1Cl`, the IC50 was determined as 0.2 µM.

For `N=c1sc(-c2cc(Br)ccc2F)nn1-c1c(Cl)cc(C(F)(F)F)cc1Cl`, the IC50 worked out at 0.63 µM.

Take `N=c1sc(-c2ccc(F)cc2)nn1-c1c(Cl)cc(Cl)cc1Cl`: the IC50 turned out to be 0.9 µM.

On to `N=c1sc(-c2cc(C(F)(F)F)ccc2F)nn1-c1c(Cl)cc(C(F)(F)F)cc1Cl`, for which the IC50 came to 0.063 µM.

As to `N=c1sc(-c2cccnc2)nn1-c1c(Cl)cc(Cl)cc1Cl`, the half-maximal inhibitory concentration (IC50) turned out to be 40 µM.

`N=c1sc(-c2cccnn2)nn1-c1c(Cl)cc(C(F)(F)F)cc1Cl` gave an IC50 of 35 µM.

`N=c1sc(-c2ccnc([N+](=O)[O-])c2)nn1-c1c(Cl)cc(C(F)(F)F)cc1Cl` had a concentration for half-maximal inhibition (IC50) of 0.013 µM.

Compound `N=c1sc(-c2ncc(C(F)(F)F)cc2Cl)nn1-c1c(Cl)cc(C(F)(F)F)cc1Cl` came in with an IC50 of 2.4 µM.

For `N=c1sc(-c2ccccn2)nn1-c1c(Cl)cc(C(F)(F)F)cc1Cl`, the IC50 turned out to be 0.09 µM.

For the compound `COc1ccc(-c2nn(-c3c(Cl)cc(Cl)cc3Cl)c(=N)s2)cc1`, the IC50 was 80 µM.

`CC(=O)Nc1ccc(-c2nn(-c3c(Cl)cc(Cl)cc3Cl)c(=N)s2)cc1` displayed a half-maximal inhibitory concentration (IC50) of 70 µM.
